From US6476065B2, “Discalamide compounds and their use as anti-proliferative agents” (priority 2000, dated 2002)

Key:
[1] = system: A549 human lung adenocarcinoma cell line; assay: A549 cytotoxicity (antiproliferative) MTT assay; assay type: cell-based; details: A549 human lung adenocarcinoma cells, 72 hours exposure
Experimental: (§1) Compounds were analyzed as to their effects on proliferation of A549 human lung adenocarcinoma and P388 murine leukemia cell lines. P388 cells were obtained from Dr. R. Camalier, National Cancer Institute, Bethesda, Md., and A549 cells were obtained from American Type Culture Collection, Rockville, Md. All cell lines were maintained in Roswell Park Memorial Institute (RPMI) medium 1640 supplemented with 100 U/ml penicillin, […], 60 […], 18 mM HEPES, 0.05 mg/ml gentamicin (Life Technologies, Gaithersburg, Md.) and 10% fetal bovine serum and cultured in plastic tissue culture flasks at 37° C. in humidified air containing 5% CO2. Stock cultures of P388 cells were subcultured 1:20 in fresh tissue culture medium (TCM) every 2 to 3 days. Stock cultures of A549 cells were subcultured 1:10 every 3 to 4 days.
(§2) To assess the antiproliferative effects of agents against P388 cells, 200 μl cultures (96-well tissue culture plates, Nunc, Denmark) were established at 2×10^4 cells/ml in TCM or TCM containing the test agent at 0.03-5.0 μg/ml. After 48 hours exposure, P388 cells were enumerated using 3-[4,5-dimethylthiazol-2-yl]-2,5-diphenyltetrazolium bromide (MTT) as described in the literature (Alley, M. D. et al. [1988] Cancer Res. 48:589). A549 cells were enumerated in the same manner using 200 μl cultures established at 3×10^4 cells/ml and exposing the cultures to the test agents for 72 hours. The results were expressed as percent inhibition compared to the negative (no drug) control. Positive drug controls of varying dilutions of 5-fluorouracil and adriamycin (Sigma Chemical Co., St. Louis, Mo.) were included to monitor drug sensitivity of the cell line.
(§3) To quantitate the effects of compounds on cell proliferation and resulting IC50 values, 75 μl of warm growth media containing 5 mg/ml MTT is added to each well, cultures returned to the incubator, and left undisturbed for 3 hours. To spectrophotometrically quantitate formation of reduced formazan, plates are centrifuged (500×g, 10 minutes), culture fluids removed by aspiration, and 200 μl of acidified isopropanol (2 ml concentrated HC1/liter isopropanol) added per well. The absorbance of the resulting solutions is measured in a plate reader (Tecan Spectra SLT; TECAN U.S., Research Triangle Park, NC) at 570 nm with a 650 nm reference filter. The absorbance of tests wells is divided by the absorbance of drug-free wells, and the concentration of agent that results in 50% of the absorbance of untreated cultures (IC50) is determined by linear regression of logit-transformed data (Finney, D. J. [1978] Statistical Method in Biological Assay, third ed., pp.316-348, Charles Griffin Co., London). A linear relationship between tumor cell number and formazan production has been routinely observed over the range of cell densities observed in these experiments. The two standard drug controls (indicated above) are included in each assay as a check to monitor the drug sensitivity of each of the cell lines and IC50 values are determined for each drug-cell combination.

[2] = system: NCI in vitro tumor cell line panel (approximately 60 cell lines); assay: National Cancer Institute's in vitro tumor cell line panel; assay type: cell-based, human
Source text: Discalamide A was additionally evaluated for its anti-proliferative effects utilizing the National Cancer Institute's in vitro tumor cell line panel. The results of these analyses are shown in the mean graphs presented as FIG. 3. The data are presented using known and accepted measurements of “lethal concentration-50” (LC50) where 50% of the cells are killed.

[3] = system: P388 murine leukemia cell line; assay: P388 cytotoxicity (antiproliferative) MTT assay; assay type: cell-based; details: P388 murine leukemia cells, 48 hours exposure
Experimental: as §1, §2, §3

Compound	IC50 [1] [nM]	effectiveness according to LC50 measurements for the NCI cell lines ([2]; HL-60(TB), K562, COLO 205, HCC-2998, SF-295, SNB-19, LOX IMVI, MALME-3M, M14, SK-MEL-2, SK-MEL-28, SK-MEL-5, UACC-257, CAKI-1, HS578T, MDA-MB-231/ATCC)	selective cytotoxicity by LC50 mean graphs (number of cell lines) ([2]; of approximately 60 cell lines tested, bars to the right of the midline, FIG. 3) [cell lines]	IC50 [3] [nM]	IC50 ([3]; Mus musculus) [nM]
C=C1C[C@](OC)([C@H](O)C(=O)N[C@H]2OCO[C@H]3[C@@H]2O[C@H](CC(/C=C/C/C=C/C=C/C(=O)O)OC)C(C)(C)[C@@H]3OC)O[C@H](C)[C@@H]1C (some centres unmarked) [2GP111 (Discalamide A), Discalamide A]	1.5	particularly effective	16	0.1	–
C=C/C=C\[C@H](C)[C@H](OC(N)=O)[C@@H](C)[C@H](O)[C@@H](C)C/C(C)=C\[C@H](C)[C@@H](O)[C@@H](C)/C=C\[C@@H](O)C[C@@H]1OC(=O)[C@H](C)[C@@H](O)[C@H]1C [Discodermolide]	25	–	–	–	55
COc1cc2c(cc1O)CCN[C@]21CS[C@@H]2c3c(OC(C)=O)c(C)c4c(c3[C@H](COC1=O)N1[C@@H]2[C@H]2c3c(cc(C)c(OC)c3O)C[C@@H]([C@@H]1O)N2C)OCO4 [Ecteinascidin 743]	–	–	–	1.7	–
C=C(CCC(C)C)COC(=O)[C@H](O)C/C=C\C[C@@H]1O[C@@H]2/C=C/C/C=C/C(C)=C\[C@H]3O[C@@H](C/C=C/C=C/C(=O)O[C@H](C2)[C@@]1(C)CO)C[C@H](O)[C@H]3C [Lasonolide A]	57	–	–	2.8	–
C=C1C[C@](OC)([C@H](O)C(=O)N[C@H]2OCO[C@H]3[C@@H]2O[C@H](C[C@H](O)CO)C(C)(C)[C@@H]3OC)O[C@H](C)[C@@H]1C [Mycalamide A]	3.6	–	–	5.2	–
C=C1C[C@](OC)([C@H](O)C(=O)N[C@H]2OCO[C@H]3[C@@H]2O[C@H](C[C@@H](CO)OC)C(C)(C)[C@@H]3OC)O[C@H](C)[C@@H]1C [Mycalamide B]	0.6	–	–	1.3	–
C=C1C[C@](OC)([C@H](O)C(=O)N[C@H]2OCO[C@H]3[C@@H]2O[C@H](C[C@H](O)CCC/C=C/C=C/C=C/C(=O)N[C@@H](CCCNC(=N)N)C(=O)O)C(C)(C)[C@@H]3OC)O[C@H](C)[C@@H]1C [Onnamide A]	170	–	–	2.4	–
Discalamide A methylester [2GP313 (Discalamide A-methylester)]	0.8	–	–	0.3	–
Discalamide B [2GP311 (Discalamide B)]	3.2	–	–	7.3	–
Ecteinascidin 729	–	–	–	1.2	–
